Laboratory results taken from patent publication US10350147B2, “Enamel products and methods of use” (The Research Foundation for The State University of New York, priority 2014, dated 2019).
“Also recorded” adds a separate entry of the source.

Experiments:
[1] = system: oral epithelial keratinocytes of the cell line IMOK; experiment: Immunocytochemistry of marker expression in treated IMOK oral epithelial keratinocytes; format: cell-based, mouse
Protocol: In the studies described below, the ameloblast-like cells originated from oral epithelial keratinocytes. We employed the cell line IMOK, an immortalized oral keratinocyte cell line of mouse origin, which was a gift from Dr. Garrett-Sinha (SUNY-Buffalo; Parikh et al., Arc. Oral Biol. 53:1091-1100, 2008).
To thaw frozen IMOK cells, we removed a cryovial containing 10^6 frozen cells from liquid nitrogen storage, immediately placed it into a 37° C. water bath, and gently swirled the vial. When the cells were thawed, we transferred the vial into a laminar flow hood, and added 10 ml of pre-warmed serum free CnT-02 growth medium (CELLNTEC; FPS 1:1000 added to the medium). We centrifuged the cell suspension (˜1000 rpm for 4 minutes) then checked the vial visually for the presence of a complete pellet. The supernatant was aseptically decanted without disturbing the cell pellet, which we gently resuspended in 7 ml of CnT-02 medium. We transferred the resuspended cells into a T25 flask and incubated it at 37° C. with a humidified atmosphere of 5% CO2 The medium was changed every other day, and when the cells became 90% confluent, we split them 1:5 and plated them in a 12-well plate as follows. After discarding the culture medium from the flask, we washed the cells with PBS then added 2 mL of a pre-warmed dissociation reagent (TrypLE; GIBCO), gently shaking the flask to completely cover the cell layer. We transferred the flask to the incubator (37° C., 5% CO2) for 20 minutes, checking under a microscope every 5 minutes for dissociation of the cells. When ≥90% of the cells detached, we added 8 ml of pre-warmed CnT-02 growth medium (CELLNTEC), dispersing it with a pipette over the cell layer surface several times. The cell suspension was transferred to a 50 ml conical tubed and centrifuged (1000 rpm for 4 minutes). We resuspended the cell pellet in 5 ml of pre-warmed serum free CnT-02 growth medium (CELLNTEC) and split the cells in 1:5 ratios. We diluted the cell suspension plate and pipetted the appropriate volume into new 12-well plates, returning the cells to the incubator (37° C., 5% CO2).
We added the vehicle (4 mM HCl+1 mg/mL BSA) to the control side and TGFβ1 (5 ng/mL) to the experimental side and mixed gently. We changed the medium every other day for 10 days. To fix the cells, we aspirated the medium, washed the cells with PBS then fixed them with 100% methanol for 20 minutes. Following fixation, we washed the fixed cells with PBS (×3) and stored them at 4° C.
Immunocytochemistry General Protocol: (1) wash sample slide in 0.15 M PBS (pH 7.2; 4×5 minutes); (2) incubate in 4% Normal Goat Serum (NGS) for 20 minutes (2 ml of 0.15 M PBS+80 μL NGS); (3) incubate with the primary antibody solution (details below; 90 minutes); (4) wash with […] (3 times×10 minutes); (5) block with 4% NGS in 0.15 M PBS (20 minutes); (6) incubate with the secondary antibody (Biotin-SP-conjugated goat anti-rabbit IgG; 60 minutes); (7) wash with 0.15 M PBS (3 times×10 minutes); (8) prepare and incubate in ABC solution (details below; 60 minutes (5 mL of 0.15 M PBS+ABC solution 600 μL); (9) wash with 0.1 M AI buffer (175 mM sodium acetate and 10 mM imidazole, pH 7.2) for 3 times×10 minutes [14.35 g sodium acetate, 0.68 g imidazole in 1000 mL H2O]; (10) carry out DAB reaction for 5-20 minutes, checking often; and (11) wash for 15 minutes in 0.05 M PBS with 0.04% TritonX-100 to stop the reaction.
The primary antibody solution contains 0.15 M PBS with 0.5% Triton X-100; 4% NGS in [0.15 M PBS with 0.5% TritonX-100; and the primary antibody at a 1:500 dilution (2 mL PBS+0.04% Tx 100+80 μL NGS+4 μL primary antibody). The secondary antibody solution contains 0.15 M PBS with 0.5% Triton X-100 and the secondary antibody at a 1:2500 dilution (Goat anti Rabbit IgG) [2 ml PBS+0.04% Tx 100+0.8 uL GαR]. To prepare the ABC (Avidin Biotin Complex) solution, add 1 drop of A, 1 drop of B, to 500 μL of 0.15 M PBS in an Eppendrof tube. […]

[2] = system: developing tooth buds; details: serotonin added to organotypic cultures; reversed with antagonists; cited from earlier work
[3] = IMOK cells before and after TGFβ1 treatment
[4] = IMOK cells, TGFβ1 5 ng/ml, 10 days, immunocytochemistry

Compound	amelogenin induction at 10 μM serotonin ([1]; 10 μM serotonin for 10 days)	amelogenin expression after serotonin treatment ([1]; IMOK cells pre-treated with TGFβ1, then further treated with serotonin)	effect on tooth development [2]	Oct4 expression [1, 3]	collagen1 expression [1, 3]	amelogenin expression after TGFβ1 treatment alone ([1]; IMOK cells before and after TGFβ1 treatment, no serotonin)	E-cadherin expression [1, 4]	N-cadherin expression [1, 4]	cell morphology after treatment ([1]; IMOK cells, TGFβ1 treatment versus confluent control)
NCCc1c[nH]c2ccc(O)cc12 [serotonin, reference compound]	induction of amelogenin	induction of amelogenin expression; also recorded: express amelogenin	accelerated tooth development	–	–	–	–	–	–
TGFβ1: recombinant human transforming growth factor β1 (R&D system) used as dedifferentiation agent	–	–	–	acquire the expression of Oct4	lose the expression of collagen1	do not express amelogenin	lost and reduction in E-cadherin expression and loss of E-cadherin expression	gained; also recorded: increase in N-cadherin expression; also recorded: induced	cells enlarge in size, separate and spread out
